Paper PMC7578299, “The antiviral effects of baloxavir marboxil against influenza A virus infection in ferrets” (Influenza and Other Respiratory Viruses, 2020)

Assays:
Assay type in all cases: in vitro ADME
[1] = Metabolic stability in liver microsomes, monkey; details: for % Residual in liver microsome: monkey, 2 μmol/L, pH 7.4
Description: (§1) Liver microsomes were prepared from ferrets, rats, dogs, and monkeys, as previously described. ^28 Human liver microsomes were obtained from Sekisui‐XenoTech, LLC and pooled (n = 15). Metabolic stability of the compounds in liver microsomes was tested in duplicate. Oseltamivir and cefcapene pivoxil were used as reference compounds. Liver microsomes at 0.5 mg/mL concentration (final volume of 0.2 mL) were incubated in Tris‐HCl buffer (pH 7.4), containing 50 mmol/L Tris‐HCl, 150 mmol/L KCl, 10 mmol/L MgCl2. The hydrolysis reaction was initiated by applying the test compound solution (final concentration 2 μmol/L). After incubation for 10, 20, and 30 minutes at 37°C, the hydrolysis was terminated by the addition of twofold volume of ice‐cold acetonitrile/methanol (1:1, v/v). Samples were centrifuged at 3000 rpm for 10 minutes prior to LC‐MS/MS analysis of compounds in the supernatants.

[2] = Metabolic stability in liver microsomes, rat; details: for % Residual in liver microsome: 2 μmol/L, pH 7.4
Description: as §1

[3] = Metabolic stability in liver microsomes, human; details: 2 μmol/L, pH 7.4
Description: as §1

[4] = Metabolic stability in liver microsomes, dog; details: for % Residual in liver microsome: 2 μmol/L, pH 7.4
Description: as §1

[5] = Metabolic stability in liver microsomes, ferret; details: for % Residual in liver microsome: ferret, 2 μmol/L, pH 7.4
Description: as §1

[6] = Metabolic stability test, control (microsome free); details: 2 μmol/L, pH 7.4
Description: as §1

## CC/C=C(\C(=O)N[C@@H]1C(=O)N2C(C(=O)OCOC(=O)C(C)(C)C)=C(COC(N)=O)CS[C@H]12)c1csc(N)n1.Cl [Cefcapene pivoxil, cefcapene pivoxil hydrochloride]
[1]
  % Residual in liver microsome Individual value: 0.0%

## CCOC(=O)C1=C[C@@H](OC(CC)CC)[C@H](NC(C)=O)[C@@H](N)C1 [OSP, oseltamivir phosphate]
[2]; 10 min
  % Residual in liver microsome: 110.8%
[2]; 20 min
  % Residual in liver microsome: 119.2%
[2]; 30 min
  % Residual in liver microsome: 117.3%
[2]; microsomes
  stability in liver microsomes (in words): stable
[3]; 10 min
  % Residual in liver microsome: 89.8%
[3]; 20 min
  % Residual in liver microsome: 64.8%
[3]; 30 min
  % Residual in liver microsome: 49.7%
[4]; 10 min
  % Residual in liver microsome: 115.8%
[4]; 20 min
  % Residual in liver microsome: 109.6%
[4]; 30 min
  % Residual in liver microsome: 110.5%
[4]; microsomes
  stability in liver microsomes (in words): stable
[1]; 10 min
  % Residual in liver microsome: 73.6%
[1]; 20 min
  % Residual in liver microsome: 59.1%
[1]; 30 min
  % Residual in liver microsome: 45.2%
[5]; 10 min
  % Residual in liver microsome: 106.5%
[5]; 20 min
  % Residual in liver microsome: 107.2%
[5]; 30 min
  % Residual in liver microsome: 109.0%
[5]; microsomes
  stability in liver microsomes (in words): stable
[6]; 10 min
  % Residual, Control (Microsome free): 106.4%
[6]; 20 min
  % Residual, Control (Microsome free): 105.4%
[6]; 30 min
  % Residual, Control (Microsome free): 111.3%
